The target in the experiment is T1, Astrosclerin-3 (Astrosclera willeyana, UniProt A6YCJ1).
T1 sequence (A6YCJ1 whole entry): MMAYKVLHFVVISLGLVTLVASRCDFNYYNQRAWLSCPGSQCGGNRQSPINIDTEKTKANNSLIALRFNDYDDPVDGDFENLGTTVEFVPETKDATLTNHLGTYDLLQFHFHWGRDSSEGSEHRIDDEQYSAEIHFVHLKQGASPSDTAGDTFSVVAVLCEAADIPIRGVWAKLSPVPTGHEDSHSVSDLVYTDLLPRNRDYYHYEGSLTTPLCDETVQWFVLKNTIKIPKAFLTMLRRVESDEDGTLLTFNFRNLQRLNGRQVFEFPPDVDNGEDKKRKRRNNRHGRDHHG
The experiment in a line: biochemical. The class given is cell-based.
Description: Inhibition of Astrosclera willeyana recombinant GST-tagged astrosclerin 3 expressed in Escherichia coli BL21-DE3-RIPL cells preincubated for 15 mins measured for 10 to 100 secs by stopped flow CO2 hydration assay
Usually Ki stands for the equilibrium dissociation constant of an inhibitor or competing ligand from its target. A low value points to higher affinity. The compound `O=S([O-])O.[Na+]` [SODIUM BISULFITE] returned an inhibition constant Ki of 320 µM.
As to `[N-]=[N+]=[N-]` [SODIUM AZIDE], the inhibition constant Ki is 27800 µM.
Turning to `[Br-].[Na+]` [SODIUM BROMIDE], the Ki amounted to 30600 µM.
Regarding `[O-][Cl+3]([O-])([O-])O` [SODIUM PERCHLORATE], the affinity corresponds to a Ki of 5110 µM.
Under `CCN(CC)C(=S)S` [DITIOCARB SODIUM] stands 450 µM.
The figure for `O=C([O-])O.[Na+]` [SODIUM BICARBONATE] is 22800 µM; for `O=[Se](=O)(O)O` [SODIUM SELENATE] it is 880 µM; for `S` [SODIUM HYDROSULFIDE] it is 490 µM.
In turn, `O=P(O)(O)OP(=O)(O)O` [SODIUM PYROPHOSPHATE] showed a Ki of 57700 µM.
Under `O=S(=O)(O)OS(=O)(=O)O` [SODIUM PYROSULFATE] stands 88100 µM; under `O=S(=O)(O)OOS(=O)(=O)O` [SODIUM PERSULFATE], 70600 µM.
In turn, `[F-].[Na+]` [SODIUM FLUORIDE] showed an inhibitory constant (Ki) of 940 µM.
The figure for `NS(=O)(=O)O` [SODIUM SULFAMATE] is 13 µM.
As for `O=[N+]([O-])[O-].[Na+]` [SODIUM NITRATE], the Ki was 76400 µM.
`[I-].[Na+]` [SODIUM IODIDE]: the Ki came out at 10400 µM.
Turning to `S=C(S)S` [SODIUM CARBONOTRITHIOATE], the inhibition constant Ki was determined as 710 µM.
The compound `O=[Te](=O)(O)O` [SODIUM TELLURATE] displayed a Ki of 750 µM.
Under `N#CO` [SODIUM CYANATE] stands 230 µM.
`O=S(=O)(O)NS(=O)(=O)O` [SODIUM IMINODISULFONATE] displayed a Ki of 660 µM.
The figure for `O=C([O-])[O-].[Na+].[Na+]` [SODIUM CARBONATE] is 13500 µM.
For the compound `F[B-](F)(F)F.[Na+]` [SODIUM TETRAFLUOROBORATE], the inhibitory constant (Ki) was greater than 200000 µM.
Under `[Cl-].[Na+]` [SODIUM CHLORIDE] stands 460 µM.
Under `NS(N)(=O)=O` [SULFAMIDE] stands 8.9 µM; under `O=NO` [SODIUM NITRITE], 63800 µM; under `O=BOB(O)OB(O)OB=O` [SODIUM TETRABORATE], 21900 µM.
The figure for `N#C[SeH]` [SODIUM SELENOCYANATE] is 770 µM; for `OB(O)c1ccccc1` [PHENYLBORONIC ACID] it is 9.6 µM.
`O=S(=O)([O-])[O-].[Na+].[Na+]` [SODIUM SULFATE ANHYDROUS] returned a Ki of 76300 µM.

(Values after ChEMBL document CHEMBL1949581, “Anion inhibition studies of an α-carbonic anhydrase from the living fossil Astrosclera willeyana” (Bioorg Med Chem Lett, 2012).)
